Laboratory results as given in patent US10375956B2, “Herbicidally active 2-(substituted-phenyl)-cyclopentane-1,3-dione compounds and derivatives thereof” (Syngenta Limited, priority 2013, dated 2019).

Key:
Type in all cases: in vivo
[1] = tested on: Alopecurus myosuroides (ALOMY); assay: Test 1 glasshouse assay, pre-emergence herbicidal activity; details: 312 h, visual evaluation after 13 days, read-out: Percentage phytotoxicity ALOMY
Procedure: (§1) Seeds of a variety of test species are sown in standard soil in pots. After cultivation for one day (pre-emergence) or after 8 days cultivation (post-emergence) under controlled conditions in a glasshouse (at 24/16° C., day/night; 14 hours light; 65% humidity), the plants are sprayed with an aqueous spray solution derived from the formulation of the “technical” (i.e. unformulated) active ingredient in acetone/water (50:50) solution containing 0.5% Tween 20 (polyoxyethylene sorbitan monolaurate, CAS Registry Number 9005-64-5). The test plants are then grown on under controlled conditions in a glasshouse (at 24/16° C., day/night; 14 hours light; 65% humidity) and watered twice daily. After 13 days for pre- or post-emergence, the test is evaluated visually, and an assessed percentage phytotoxicity score is given for each herbicidal application on each plant species (where 100%=total damage to plant; 0%=no damage to plant).
(§2) Test plants include the following: Abutilon theophrasti (ABUTH), Amaranthus retroflexus (AMARE): these are dicotyledonous (broadleaved) weeds. Setaria faberi (SETFA), Alopecurus myosuroides (ALOMY), Echinochloa crus-galli (ECHCG): these are grassy monocotyledonous weeds. Also: Zea mays (ZEAMX, corn/maize), which can be a grassy weed (“volunteer” corn) in some circumstances.

[2] = tested on: Zea mays (ZEAMX, corn/maize); assay: as above; details: 312 h, visual evaluation after 13 days, read-out: Percentage phytotoxicity ZEAMX
Procedure: as §1, §2

[3] = tested on: Abutilon theophrasti (ABUTH); assay: as above; details: 312 h, visual evaluation after 13 days, read-out: Percentage phytotoxicity ABUTH
Procedure: as §1, §2

[4] = tested on: Setaria faberi (SETFA); assay: as above; details: 312 h, visual evaluation after 13 days, read-out: Percentage phytotoxicity SETFA
Procedure: as §1, §2

[5] = tested on: Lolium perenne (LOLPE); assay: Test 2 glasshouse assay (IF50 formulation, X-77), post-emergence herbicidal activity; details: 360 h, 15 DAA, visual score, read-out: Post-emergence herbicidal activity (percentage phytotoxicity) LOLPE; for pest or weed control at 30 g/ha: application rate 30 g/ha; for pest or weed control at 250 g/ha: application rate 250 g/ha; for pest or weed control at 125 g/ha: application rate 125 g/ha
Procedure: (§3) Seeds of a variety of monocotyledonous and dicotyledonous test plants are sown in standard soil in pots. The plants are cultivated for one day (for pre-emergence) or for about 12 days (for post-emergence) under controlled conditions in a glasshouse (warm climate species at 24/18° C., cool climate species at 20/16° C., both at day/night; 16 hours light; 65% humidity).
(§4) An “instant formulation”, known as the “IF50”, containing 50 g/liter (i.e. 5% w/v) of the “technical” (i.e. unformulated) active ingredient is prepared by dissolving the active ingredient in a mixture of organic solvents and emulsifier, details of which are provided in the Table below. This IF50 is then mixed with a small, variable amount of acetone to aid dissolution, before addition of a 0.2% v/v aqueous solution of the adjuvant X-77 (which is a mixture of alkyl aryl polyoxyethylene glycols and free fatty acids in isopropanol, CAS Registry number 11097-66-8), as the aqueous diluent, to form an aqueous spray solution which contains a predetermined concentration of the active ingredient (which varies depending on the application rate of the active ingredient to the plants) and 0.2% v/v of the adjuvant X-77. This aqueous spray solution is then sprayed onto the plants, after one day's cultivation (for pre-emergence), or after about 12 days' cultivation (range=10-13 days) (for post-emergence).
(§5) The test plants are then grown on, in a glasshouse (greenhouse) under controlled conditions (warm climate species at 24/18° C., cool climate species at 20/16° C., both at day/night; 16 hours light; 65% humidity) and are watered twice daily. 15 days after application of the test herbicide (15DAA) (for post-emergence), and 20 days after application of the test herbicide (20DAA) (for pre-emergence), the test plants are evaluated visually, and an assessed percentage phytotoxicity score is given for each herbicidal application on each plant species (with 100%=total damage to plant; 0%=no damage to plant).
(§6) Cool climate (“cool season”) grassy monocotyledonous weeds: Alopecurus myosuroides (ALOMY), Avena fatua (AVEFA), Lolium perenne (LOLPE).

[6] = tested on: Alopecurus myosuroides (ALOMY); assay: as above; details: 360 h, 15 DAA, visual score, read-out: Post-emergence herbicidal activity (percentage phytotoxicity) ALOMY; for pest or weed control at 30 g/ha: application rate 30 g/ha; for pest or weed control at 250 g/ha: application rate 250 g/ha; for pest or weed control at 125 g/ha: application rate 125 g/ha
Procedure: as §3, §4, §5, §6

[7] = tested on: Avena fatua (AVEFA); assay: as above; details: 360 h, 15 DAA, visual score, read-out: Post-emergence herbicidal activity (percentage phytotoxicity) AVEFA; for pest or weed control at 30 g/ha: application rate 30 g/ha; for pest or weed control at 250 g/ha: application rate 250 g/ha; for pest or weed control at 125 g/ha: application rate 125 g/ha
Procedure: as §3, §4, §5, §6

[8] = tested on: Triticum aestivum (TRZAW, winter wheat); assay: as above; details: 360 h, 15 DAA, visual score, read-out: Post-emergence herbicidal activity (percentage phytotoxicity) TRZAW; for plant injury at 30 g/ha: application rate 30 g/ha; for plant injury at 250 g/ha: application rate 250 g/ha; for plant injury at 125 g/ha: application rate 125 g/ha
Summary of the method: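 Plants grown ~12 days (range 10-13) in glasshouse (cool species 20/16° C., warm 24/18° C. day/night; 16 h light; 65% humidity), then sprayed post-emergence with IF50 formulation in aqueous 0.2% v/v X-77. Visual percentage phytotoxicity scored 15 days after application (100% = total damage, 0% = none).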

[9] = tested on: Echinochloa crus-galli (ECHCG); assay: Test 2 glasshouse assay (IF50 formulation, X-77), pre-emergence herbicidal activity; details: 480 h, 250 g/ha, 20DAA, read-out: Percentage phytotoxicity ECHCG
Procedure: as §3, §4, §5
(§7) Warm climate (“warm season”) grassy monocotyledonous weeds: Setaria faberi (SETFA), Panicum miliaceum (PANMI), Sorghum vulgare Pers. (SORVU) (or Sorghum bicolor (L) Moench ssp. Bicolor), Digitaria sanguinalis (DIGSA), Echinochloa crus-galli (ECHCG), and Brachiaria plantaginea (BRAPL).

[10] = tested on: Sorghum vulgare Pers. (SORVU); assay: as above; details: Sorghum bicolor, 480 h, 250 g/ha, 20DAA, read-out: Percentage phytotoxicity SORVU
Procedure: as §3, §4, §5, §7

[11] = tested on: Panicum miliaceum (PANMI); assay: as above; details: 480 h, 250 g/ha, 20DAA, read-out: Percentage phytotoxicity PANMI
Procedure: as §3, §4, §5, §7

[12] = tested on: Setaria faberi (SETFA); assay: as above; details: 480 h, 250 g/ha, 20DAA, read-out: Percentage phytotoxicity SETFA
Procedure: as §3, §4, §5, §7

[13] = tested on: Digitaria sanguinalis (DIGSA); assay: as above; details: 480 h, 250 g/ha, 20DAA, read-out: Percentage phytotoxicity DIGSA
Procedure: as §3, §4, §5, §7

With `C#CCC1CC(=O)C(c2c(F)cc(-c3ccc(F)cc3)cc2OC)C1=O` (stereo not shown) [Compound A20, 2-[2-fluoro-4-(4-fluorophenyl)-6-methoxyphenyl]-4-prop-2-ynylcyclopentane-1,3-dione] the pest or weed control at 250 g/ha [1] was 90%, the pest or weed control at 250 g/ha [2] was 100% and the pest or weed control at 250 g/ha [3] was 70%. It also gave a pest or weed control at 250 g/ha [4] of 100%.

In the case of `C#CCC1CC(=O)C(c2c(F)cc(-c3ccc(F)cc3F)cc2OC)C1=O` (stereo not shown) [Compound A21], the pest or weed control at 250 g/ha [1] is reported as 80%, the pest or weed control at 250 g/ha [2] is reported as 100% and the pest or weed control at 250 g/ha [3] is reported as 10%. The pest or weed control at 250 g/ha [4] was 90%.

In the case of `C#CCC1CC(=O)C(c2c(Cl)cc(-c3ccc(Cl)cn3)cc2OC)C1=O` (stereo not shown) [Compound A10], the pest or weed control at 30 g/ha [5] is reported as 30%, the pest or weed control at 250 g/ha [5] is reported as 90% and the pest or weed control at 30 g/ha [6] is reported as 50%. The pest or weed control at 250 g/ha [6] was 100%, the pest or weed control at 30 g/ha [7] was 60% and the pest or weed control at 250 g/ha [7] was 100%. For the same molecule, the plant injury at 30 g/ha [8] was 70%, the plant injury at 250 g/ha [8] was 80% and the pest or weed control at 250 g/ha [1] was 100%. The pest or weed control at 250 g/ha [2] was 100%, the pest or weed control at 250 g/ha [3] was 60% and the pest or weed control at 250 g/ha [4] was 100%. The pest or weed control at 250 g/ha [9] was 100%, the pest or weed control at 250 g/ha [10] was 100% and the pest or weed control at 250 g/ha [11] was 100%. The pest or weed control at 250 g/ha [12] was 100% and the pest or weed control at 250 g/ha [13] was 100%.

`C#CCC1CC(=O)C(c2c(F)cc(-c3ccc(Cl)cn3)cc2Cl)C1=O` (stereo not shown) [Compound A8] was tested, and the pest or weed control at 30 g/ha [5] was 40%, the pest or weed control at 250 g/ha [5] was 60% and the pest or weed control at 30 g/ha [6] was 50%. For the same molecule, the pest or weed control at 250 g/ha [6] was 80%, the pest or weed control at 30 g/ha [7] was 50% and the pest or weed control at 250 g/ha [7] was 90%. The plant injury at 30 g/ha [8] was 30%, the plant injury at 250 g/ha [8] was 90% and the pest or weed control at 250 g/ha [1] was 90%. The pest or weed control at 250 g/ha [2] was 90%, the pest or weed control at 250 g/ha [3] was 0% and the pest or weed control at 250 g/ha [4] was 100%. It also gave a pest or weed control at 250 g/ha [9] of 60%, a pest or weed control at 250 g/ha [10] of 80% and a pest or weed control at 250 g/ha [11] of 90%. The pest or weed control at 250 g/ha [12] was 70% and the pest or weed control at 250 g/ha [13] was 80%.

Molecule `C#CCC1CC(=O)C(c2cc(-c3ncc(Cl)cn3)ccc2C)C1=O` (stereo not shown) [Compound A19] has a pest or weed control at 250 g/ha [5] of 10%, a pest or weed control at 250 g/ha [6] of 40% and a pest or weed control at 250 g/ha [7] of 10%. The plant injury at 250 g/ha [8] was 30%, the pest or weed control at 250 g/ha [1] was 60% and the pest or weed control at 250 g/ha [2] was 0%. For the same molecule, the pest or weed control at 250 g/ha [3] was 40% and the pest or weed control at 250 g/ha [4] was 60%.

`C#CCC1CC(=O)C(c2cc(-c3ccc(Cl)cc3Cl)ccc2C)C1=O` (stereo not shown) [Compound A15] was tested, and the pest or weed control at 250 g/ha [5] was 20%, the pest or weed control at 250 g/ha [6] was 40% and the pest or weed control at 250 g/ha [7] was 10%. For the same molecule, the plant injury at 250 g/ha [8] was 10%, the pest or weed control at 250 g/ha [9] was 10% and the pest or weed control at 250 g/ha [10] was 30%. For the same molecule, the pest or weed control at 250 g/ha [11] was 20%, the pest or weed control at 250 g/ha [12] was 20% and the pest or weed control at 250 g/ha [13] was 50%.

With `C#CCC1CC(=O)C(c2c(F)cc(-c3ccc(Cl)cc3)cc2Cl)C1=O` (stereo not shown) [Compound A6, 2-[2-chloro-4-(4-chlorophenyl)-6-fluorophenyl]-4-prop-2-ynylcyclopentane-1,3-dione] the pest or weed control at 125 g/ha [5] was 30%, the pest or weed control at 250 g/ha [5] was 70% and the pest or weed control at 125 g/ha [6] was 80%. It also gave a pest or weed control at 250 g/ha [6] of 100%, a pest or weed control at 125 g/ha [7] of 70% and a pest or weed control at 250 g/ha [7] of 80%. For the same molecule, the plant injury at 125 g/ha [8] was 80%, the plant injury at 250 g/ha [8] was 90% and the pest or weed control at 250 g/ha [1] was 90%. It also gave a pest or weed control at 250 g/ha [2] of 90%, a pest or weed control at 250 g/ha [3] of 40% and a pest or weed control at 250 g/ha [4] of 100%. The pest or weed control at 250 g/ha [9] was 50%, the pest or weed control at 250 g/ha [10] was 40% and the pest or weed control at 250 g/ha [11] was 0%. The pest or weed control at 250 g/ha [12] was 0% and the pest or weed control at 250 g/ha [13] was 20%.

For `C#CCC1CC(=O)C(c2cc(-c3ncc(Cl)cc3F)ccc2C)C1=O` (stereo not shown) [Compound A18], the pest or weed control at 250 g/ha [5] was 10%, the pest or weed control at 250 g/ha [6] was 30% and the pest or weed control at 250 g/ha [7] was 30%. It also gave a plant injury at 250 g/ha [8] of 30%, a pest or weed control at 250 g/ha [1] of 60% and a pest or weed control at 250 g/ha [2] of 30%. The pest or weed control at 250 g/ha [3] was 20% and the pest or weed control at 250 g/ha [4] was 70%.

For `C#CCC1CC(=O)C(c2c(C)cc(C)cc2C)C1=O` (stereo not shown) [Compound A23], the pest or weed control at 125 g/ha [5] was 90%, the pest or weed control at 125 g/ha [6] was 90% and the pest or weed control at 125 g/ha [7] was 80%. The plant injury at 125 g/ha [8] was 20%, the pest or weed control at 250 g/ha [1] was 100% and the pest or weed control at 250 g/ha [9] was 100%. For the same molecule, the pest or weed control at 250 g/ha [10] was 70%, the pest or weed control at 250 g/ha [11] was 100% and the pest or weed control at 250 g/ha [12] was 90%. The pest or weed control at 250 g/ha [13] was 90%.
